Measured values: article PMC8941652 (European journal of medicinal chemistry, 2022)
Read-outs that look alike come from different tables or passages of the source.

What was measured:
[1] = tested on: Mycobacterium tuberculosis H37Rv; format: cell-based; details: for MIC: H37Rv, 7H9 liquid medium, at least 90% growth inhibition, 10 days
[2] = format: in vivo, CD-1 female mice; details: p.o. 25 mg/kg, CMC/Tween80 suspension, compared with parent PAS
[3] = tested on: Drug susceptible Mtb strains; experiment: microbe, parasite or virus in culture; format: cell-based; details: Mycobacterium tuberculosis
[4] = tested on: Mycobacterium tuberculosis; details: cited from earlier work
[5] = p.o. 25 mg/kg

| SMILES | MIC [1] | MIC [3] [µM] | further results |
| --- | --- | --- | --- |
| CC(C)OC(=O)c1ccc(N)cc1O [Compound 5, Isopropyl 4-amino-2-hydroxybenzoate] | abolished activity | – | – |
| CC(C)(C)C(=O)OCOC(=O)c1ccc(N)cc1O [Compound 6, (Pivaloyloxy)methyl 4-amino-2-hydroxybenzoate] | – | – | oral bioavailability of PAS released from the suspension of prodrug [2]: significantly lower than the parent PAS |
| Nc1cc(O)c(C(=O)O)cc1F [Compound 11, 4-Amino-5-fluoro-2-hydroxybenzoic acid] | – | 6.3 to 25 | MIC ([3]; read-out: MICs against the drug susceptible and MDR strains): 6.3 to 50 µg/mL |
| CNc1ccc(C(=O)O)c(O)c1 [Compound 14, 2-Hydroxy-4-(methylamino)benzoic acid] | inactive | – | antitubercular potency relative to PAS [4]: nearly equipotent to PAS |
| [N-]=[N+]=Nc1ccc(C(=O)O)c(O)c1 [Compound 15, 4-Azido-2-hydroxybenzoic acid] | weakly active | – | loss of activity compared to PAS ([1]; H37Rv MIC): ~200 fold; formation of PAS in vivo [5]: no formation of PAS in vivo |
| CCOC(=O)c1cc(F)c(N)cc1O [Compound 16, Ethyl 4-amino-5-fluoro-2-hydroxybenzoate] | inactive | – | – |
| CC(=O)NC[C@H]1CN(c2ccc(N3CCOCC3)c(F)c2)C(=O)O1 [Linezolid] | – | 0.7 to 1.9 | – |
| Nc1ccc(C(=O)O)c(O)c1 [PAS, para-Aminosalicylic acid] | – | 0.2 to 0.6 | – |
